Experimental data reported in US7666639B2, “Plant deoxyribonucleoside kinase enzymes and their use” (priority 2002, dated 2010).

Columns and labels:
[1] = test system: tomato dNK enzyme (TOM-dCK/dGK); experiment: Deoxyribonucleoside kinase activity in extract of KY895 transformed with pGEX-2T-TOM-dCK/dGK; type: biochemical, Lycopersicum esculentum; details: for ability to phosphorylate the deoxyribonucleoside (in words): pGEX-2T-TOM-dCK/dGK
Experimental: (§1) Transformed KY895 strains were grown to an OD600 nm of 0.5-0.6 in LB/Ampicillin (100 μg/ml) medium at 37° C., and protein expression was induced by addition of 100 μM IPTG. The cells were further grown for 4 hours at 25° C. and subsequently harvested by centrifugation.
(§2) Pellets were stored at −80° C. until activity testing. Pellets were submitted to brief sonification in extraction buffer (50 mM Tris/HCl pH 7.5, 1 mM DTT, 10% (v/v) glycerol, 1% (v/v) Triton X-100, protease inhibitor cocktail (Complete™ from Roche Diagnostics).
(§3) Deoxyribonucleoside kinase activities were determined in the KY895 extracts by initial velocity measurements based on four time samples by the DE-81 filter paper assay using tritium-labelled nucleoside substrates. 4 to 20 μg extracts were used in the assays.
(§4) The four natural deoxyribonucleosides were tested at a fixed concentration of 100 μM. The highest specific activity in each extract was set to 100%.

[2] = test system: N-terminally deleted tomato dNK enzyme (TOM-ΔNdCK/dGK); experiment: Deoxyribonucleoside kinase activity in extract of KY895 transformed with pGEX-2T-TOM-ΔNdCK/dGK; type: biochemical, Lycopersicum esculentum; details: for ability to phosphorylate the deoxyribonucleoside (in words): pGEX-2T-TOM-ΔNdCK/dGK
Experimental: (§5) The E. coli strain KY895 (F^−, tdk-1, ilv) [Knecht W, Munch-Petersen B and Piskur J: Identification of residues involved in the specificity and regulation of the highly efficient multisubstrate deoxyribonucleoside kinase from Drosophila melanogaster; J. Mol. Biol. 2000 301 827-837] was transformed by various expression plasmids using standard techniques. Transformed KY895 strains were grown to an OD600 nm of 0.5-0.6 in LB/Ampicillin (100 μg/ml) medium at 37° C., and protein expression was induced by addition of 100 μM IPTG. The cells were further grown for 4 hours at 25° C. and subsequently harvested by centrifugation.
as §2
(§6) Deoxyribonucleoside kinase activities were determined in the KY895 extracts by initial velocity measurements based on four time samples by the DE-81 filter paper assay using tritium-labelled nucleoside substrates. 4 to 20 μg extracts were used in the assays. The assay was done as described by Munch-Petersen et al. [Munch-Petersen, B., Knecht, W, Lenz, C., Sondergaard, L. & Piskur, J: Functional expression of a multisubstrate deoxyribonucleoside kinase from Drosophila melanogaster and its C-terminal deletion mutants; J. Biol. Chem. 2000 275 6673-6679].
(§7) The protein concentration was determined according to Bradford with BSA as standard protein [Bradford M M: A rapid and sensitive method for the quantitation of microgram quantities of protein utilizing the principle of protein-dye binding; Anal. Biochem. 1976 72 248-254]. SDS-PAGE was done according to the procedure of Laemmli [Laemmli U K: Cleavage of structural proteins during the assembly of the head of bacteriophage T4; Nature 1970 227 680-685], and proteins were visualized by Coomassie staining to verify recombinant protein expression.
as §4

[3] = test system: C-terminally deleted tomato dNK enzyme (TOM-dCK/dGKΔC); experiment: Deoxyribonucleoside kinase activity in extract of KY895 transformed with pGEX-2T-TOM-dCK/dGKΔC; type: biochemical, Lycopersicum esculentum; details: for Deoxyribonucleoside kinase activity (relative): highest specific activity in extract = 100%
Experimental: as §5, §2, §6, §7, §4

[4] = test system: Arabidopsis thaliana dNK enzyme (AT-dCK/dGK); experiment: Deoxyribonucleoside kinase activity in extract of KY895 transformed with pGEX-2T-AT-dCK/dGK; type: biochemical; details: for ability to phosphorylate the deoxyribonucleoside (in words): pGEX-2T-AT-dCK/dGK
Experimental: as §1, §2, §3, §4

[5] = extract of pGEX-2T-TOM-dCK/dGKΔC transformant, substrate 100 μM

Row | specific activity corresponding to 100% ([1]; extract of pGEX-2T-TOM-dCK/dGK transformant, substrate 100 μM) | Deoxyribonucleoside kinase activity (relative) ([1]; extract of pGEX-2T-TOM-dCK/dGK transformant, substrate 100 μM, highest specific activity in extract = 100%) [%] | ability to phosphorylate the deoxyribonucleoside (in words) [1] | specific activity corresponding to 100% ([2]; extract of pGEX-2T-TOM-ΔNdCK/dGK transformant, substrate 100 μM) | Deoxyribonucleoside kinase activity (relative) ([2]; extract of pGEX-2T-TOM-ΔNdCK/dGK transformant, substrate 100 μM, highest specific activity in extract = 100%) [%] | ability to phosphorylate the deoxyribonucleoside (in words) [2] | Deoxyribonucleoside kinase activity (relative) [3, 5] [%] | Deoxyribonucleoside kinase activity (relative) ([4]; extract of pGEX-2T-AT-dCK/dGK transformant, substrate 100 μM, highest specific activity in extract = 100%) [%] | ability to phosphorylate the deoxyribonucleoside (in words) [4] | specific activity corresponding to 100% [3, 5] | substrate conversion (in words) ([3]; pGEX-2T-TOM-dCK/dGKΔC) | SMILES
1 | (3.3) mU/mg | 100 | able to phosphorylate | (0.32) mU/mg | 100 | able to phosphorylate | 74 | 91 | able to phosphorylate | – | – | Nc1nc2c(ncn2[C@H]2C[C@H](O)[C@@H](CO)O2)c(=O)[nH]1 [dGuo, deoxyguanosine]
2 | – | – | not | – | – | not | 100 | – | not | (0.27) mU/mg | fastest converted substrate | Cc1cn([C@H]2C[C@H](O)[C@@H](CO)O2)c(=O)[nH]c1=O [dThd, thymidine]
